Assay [1] relates to CAKI-1. The assay can be described thus: SRB anticancer assay, renal. In kind it is cell-based, human. More on the design: Log10GI50: unit not given here. The note with it: for Log10GI50: CAKI-1, present compounds; for GI50: Homo sapiens, CAKI-1, 48 h.
In assay [2] the test system is MDA-MB-435. The assay can be described thus: SRB anticancer assay, melanoma. It counts as cell-based, human. More on the design: Log10GI50: unit not given here. The note with it: for GI50: Homo sapiens, MDA-MB-435, 48 h; for Log10GI50: MDA-MB-435, present compounds. (In SRB staining, fixed cells bind dye roughly in proportion to their protein.)
Assay [3] deals with COLO 205. The assay can be described thus: SRB anticancer assay, colon. It counts as cell-based, human. The note with it: Homo sapiens, COLO 205, 48 h.
Assay [4] has as its system MDA-MB-468. The assay can be described thus: SRB anticancer assay, breast. Particulars: present compounds. In kind it is cell-based, human. More on the design: unit not given here.
Assay [5] concerns sixty human cancer cell lines. The assay can be described thus: SRB anticancer assay, all cell lines. The note with it: all the cell lines; exposure at least 48 h. In kind it is cell-based.
The subject of assay [6] is HCT-15. The assay can be described thus: SRB anticancer assay, colon. It counts as cell-based, human. Particulars: Homo sapiens, HCT-15, 48 h.
In assay [7] the test system is MOLT-4. The assay can be described thus: SRB anticancer assay, leukemia. In kind it is cell-based, human. On the set-up: Log10GI50: unit not given here. Particulars: for GI50: Homo sapiens, MOLT-4, 48 h; for Log10GI50: MOLT, present compounds.
In assay [8] the test system is SW-620. The assay can be described thus: SRB anticancer assay, colon. The note with it: for GI50: Homo sapiens, SW-620, 48 h; for Log10GI50: SW-620, present compounds. In kind it is cell-based, human. More on the design: Log10GI50: unit not given here.
Assay [9] deals with CCRF-CEM. The assay can be described thus: SRB anticancer assay, leukemia. It counts as cell-based, human. On the set-up: Log10GI50: unit not given here. The note with it: for GI50: Homo sapiens, 48 h; for Log10GI50: present compounds.
For assay [10], the system named is EKVX. The assay can be described thus: SRB anticancer assay, non-small lung. It counts as cell-based, human. On the set-up: Log10GI50: unit not given here. Particulars: for GI50: Homo sapiens, 48 h; for Log10GI50: present compounds.
The subject of assay [11] is RPMI-8226. The assay can be described thus: SRB anticancer assay, leukemia. The note with it: Homo sapiens, RPMI-8226, 48 h. It counts as cell-based.
For assay [12], the system named is HCC-2998. The assay can be described thus: SRB anticancer assay, colon. It counts as cell-based, human. The note with it: Homo sapiens; HCC-2998, 48 h.
For assay [13], the system named is HOP-62. The assay can be described thus: SRB anticancer assay, non-small lung. In kind it is cell-based, human. Particulars: for GI50: Homo sapiens, HOP-62, 48 h; for Log10GI50: HOP-62, present compounds.
Assay [14] deals with p21. The assay can be described thus: Western blot, apoptosis proteins in MCF-7 cells. It counts as cell-based. Particulars: 2 μM, 24h. As for the experimental part: (§1) FIG. 3 represents effect of compound 7d and 7h on p21 and caspase-9. MCF-7 cells were treated with 2 μM concentration of compounds 7d and 7h for 24h. The cell lysates were collected and probed with anti-bodies against p21 and caspase-9. beta-actin was used as loading control. Con: Control (untreated).
(§2) Activation of tumor suppressor gene p21 was the important regulator of apoptotic pathway caused by various stimuli. In many instances the apoptotic cell death is mediated by caspases, thus the possible involvement of p21 and caspase protein and its role in apoptosis has been investigated. MCF-7 cells were treated with 7d, 7h (the effective compounds of cell cycle arrest) 21a, 21d and CA-4 at 2 μM concentration.

In assay [15] the test system is caspase-9. The assay can be described thus: Western blot, apoptosis proteins in MCF-7 cells. It counts as cell-based. The note with it: 2 μM, 24h. As for the experimental part: as §1, §2
Assay [16] concerns microtubule network of MCF-7 cells. The assay can be described thus: Effect on microtubule network. Particulars: 2 μM. In kind it is cell-based. As for the experimental part:
FIG. 2 represents effect of compound 7d, the effective compound on the microtubule network of MCF-7 cells untreated cells (Con), nocodazole (Noc) and 7d at 2 μM concentration. Microtubules and unassembled tubulin are shown in green and DNA was stained with nuclear dye DAPI (4,6-diamidino-2-phenylindole) is shown in blue colour.
Inhibition of tubulin is associated with G2/M cell cycle arrest by interrupting chromosome segregation and affecting mitotic spindle formation. […] It was considered of interest to understand the mechanism of anti-cancer activity of compound 7d with regard to interaction with microtubule system. MCF-7 breast cancer cells were treated with Nocodazole (Noc), 7d compounds at 2 μM concentration.

Molecules are shown by their SMILES.

As usually defined, the GI50 is the concentration at which growth is held to half of that of the control. `COc1ccc(-c2cncn2-c2ccc(-c3nc4cc(OC)c(OC)c(OC)c4s3)cc2)cc1N` [Compound 7j, 2-Methoxy-5-(1-(4-(5,6,7-trimethoxybenzo[d]thiazol-2-yl)phenyl)-1H-imidazol-5-yl)benzeneamine]: the Log10GI50 was −5.32 in assay [1]; −5.50 in [2]; −5.07 in assay [4]; −5.40 in assay [7]; −5.21 in [8]; −5.47 in [9]. The Log10GI50 in [10] is listed as −5.12. The GI50 in assay [1] came out at 4.82 µM; in [2], 3.13 µM; in [3] it was 2.94 µM; in assay [6] it was 4.02 µM; in assay [7], 4 µM; in [8], 6.21 µM. In addition, the GI50 was determined as 3.41 µM in assay [9] and 7.54 µM in assay [10]. Moreover, in assay [5], the “mean graph midpoint values (MG_MID) of log10LC50, range” value is recorded as −4.00.

Turning to `COc1cc(OC)c2sc(-c3ccc(-n4cncc4-c4ccc(OC)c(OC)c4)cc3)nc2c1` [Compound 6e, 2-(4-(5-(3,4-Dimethoxyphenyl)-1H-imidazol-1-yl)phenyl)-5,7-dimethoxybenzo[d]thiazole], the GI50 in assay [11] is more than 100 µM; in assay [12], more than 100 µM; in assay [13], 35.5 µM; in [6], more than 100 µM; in assay [8] it was more than 100 µM; in assay [9] it was more than 100 µM. For the same compound, the “mean graph midpoint values (MG_MID) of log10LC50, range” value in assay [5] was −4.00.

Consider `COc1cc(OC)cc(-c2cncn2-c2ccc(-c3nc4cc(OC)cc(OC)c4s3)cc2)c1` [Compound 6d, 2-(4-(5-(3,5-Dimethoxyphenyl)-1H-imidazol-1-yl)phenyl)-5,7-dimethoxybenzo[d]thiazole], for which the GI50 was 2.13 µM in assay [1], 1.53 µM in [2], more than 100 µM in assay [12] and 6.65 µM in assay [13]. Also, in [5], the “mean graph midpoint values (MG_MID) of log10LC50, range” value was −4.00.

Regarding `COc1cc(OC)c2sc(-c3ccc(-n4cncc4-c4cc(OC)c(OC)c(OC)c4)cc3)nc2c1` [Compound 6f, 5,7-Dimethoxy-2-(4-(5-(3,4,5-trimethoxyphenyl)-1H-imidazol-1-yl)phenyl)benzo[d]thiazole], the 50% growth inhibitory concentration (GI50) in assay [11] was 5.39 µM; in assay [2], 3.41 µM; in assay [12], more than 100 µM; in assay [13] it was 75.9 µM; in assay [3], 4.51 µM; in assay [6] it was 5.48 µM. The GI50 in assay [7] stood at 4.24 µM; in assay [8] it was 5.96 µM; in assay [9], 3.95 µM; in [10], 5.09 µM. Further, the “mean graph midpoint values (MG_MID) of log10LC50, range” value in assay [5] is recorded as −4.00. The “mean graph midpoint values (MG_MID) of log10TGI, range” value in [5] is reported as −4.00.

For `COc1cc(OC)cc(-c2cncn2-c2ccc(-c3nc4cc(OC)c(OC)c(OC)c4s3)cc2)c1` [Compound 7d, 2-(4-(5-(3,5-Dimethoxyphenyl)-1H-imidazol-1-yl)phenyl)-5,6,7-trimethoxybenzo[d]thiazole], the “p21 protein (Western blot)” value in assay [14] is reported as “increase”. The “caspase-9 protein (Western blot)” value in assay [15] is “increase”. Also, the Log10GI50 was −5.42 in assay [1]; −5.22 in assay [2]; −4.58 log10 M in [13]; −4.97 in [4]; −5.39 in [7]; −4.86 in [8]. This compound also displayed a Log10GI50 in [10] of −5.73. Moreover, the GI50 is 3.79 µM in assay [1]; 2.9 µM in assay [11]; 6.07 µM in assay [2]; more than 100 µM in assay [12]; 26.4 µM in assay [13]; 3.85 µM in [3]. The GI50 came out at 5.72 µM in assay [6], 4.11 µM in assay [7], 13.7 µM in assay [8] and 1.87 µM in assay [10]. Further, the microtubulin organization entry in assay [16] was “disrupted microtubulin organization”.

As for `COc1cc2nc(-c3ccc(-n4cncc4-c4ccc(N)cc4)cc3)sc2c(OC)c1OC` [Compound 7h, 4-(1-(4-(5,6,7-Trimethoxybenzo[d]thiazol-2-yl)phenyl)-1H-imidazol-5-yl)benzenamine], the “p21 protein (Western blot)” value in [14] is given as “increase”. The “caspase-9 protein (Western blot)” value in assay [15] is “increase”. The Log10GI50 in assay [1] was −5.85; in [4] it was −5.74; in assay [10], −5.60. The GI50 came to 1.41 µM in assay [1] and 2.49 µM in assay [10].

On to `COc1cc(-c2cncn2-c2ccc(-c3nc4ccc(F)cc4s3)cc2)ccc1F` [Compound 4c, 6-Fluoro-2-(4-(5-(4-fluoro-3-methoxyphenyl)-1H-imidazol-1-yl)phenyl)benzo[d]thiazole], for which the GI50 in assay [1] is more than 100 µM; in [11], 4.11 µM; in [2], 17.1 µM; in assay [12], more than 100 µM; in [13], 40.7 µM; in assay [3], 56.8 µM. The GI50 in assay [6] was 82.3 µM; in assay [7], 3.41 µM; in assay [8] it was 7.81 µM; in assay [9], 6.92 µM. For the same compound, the Log10GI50 in assay [2] was −4.77; in assay [13] it was −4.39 log10 M; in [4], −4.96; in [7], −5.47; in assay [8], −5.11; in assay [9], −5.16.

Source of the values: US9187467B2, “2-phenyl benzothiazole linked imidazole compounds as potential anticancer agents and process for the preparation thereof” (Council of Scientific and Industrial Research, priority 2012, dated 2015).
